# Key:
# late watergrass = test: Test Example 1: herbicidal activity, application before weed generation under submerged conditions (Table 16, symbol A); assay type: in vivo, late watergrass (Echinochloa oryzicola); conditions: amount of applied herbicide 320 g/ha
# In short: (§1)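 Alluvial soil was flooded to 4 cm depth, weed seeds were sown mixed and 2.5-leaf rice seedlings were transplanted. On sowing day, the compound's emulsion, diluted in water to a set dose, was applied to the water surface. Plants grew at 25–30 °C and were scored 0–5 after three weeks.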
# Japanese bulrush = test: Test Example 1: herbicidal activity, application before weed generation under submerged conditions (Table 16, symbol B); assay type: in vivo, Japanese bulrush (Schoenoplectus juncoides); conditions: amount of applied herbicide 320 g/ha
# In short: as §1
# oval-leafed pondweed = test: Test Example 1: herbicidal activity, application before weed generation under submerged conditions (Table 16, symbol C); assay type: in vivo, oval-leafed pondweed (Monochoria vaginalis); conditions: amount of applied herbicide 320 g/ha
# In short: as §1
# barnyard grass [1] = test: Test Example 3: herbicidal effect by foliage application, Wagner pot (Table 18, symbol H); assay type: in vivo, barnyard grass (Echinochloa crus-galli)
# In short: (§2)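 Plants were sown in alluvial soil held under 0.1–0.5 cm standing water and grown 14 days in a greenhouse at 25–30 °C. An emulsifiable formulation, water-diluted to the set dose, was then sprayed onto the foliage, and effects were scored three weeks later using previously defined criteria.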
# Chinese sprangletop = test: Test Example 3: herbicidal effect by foliage application, Wagner pot (Table 18, symbol D); assay type: in vivo, chinese sprangletop (Leptochloa chinensis)
# In short: as §2
# rice flat sedge = test: Test Example 3: herbicidal effect by foliage application, Wagner pot (Table 18, symbol E); assay type: in vivo, rice flat sedge (Cyperus iria)
# In short: as §2
# southern crabgrass [2] = test: Test Example 4: herbicidal effect by soil treatment (Table 19, symbol F); assay type: in vivo, southern crabgrass (Digitaria ciliaris); conditions: amount of applied herbicide 320 g/ha
# In short: (§3)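 Soil-surface application: an emulsion agent diluted with water to the predetermined dose is sprayed uniformly over seeds lying under roughly 1.5 cm of sterilized diluvial soil. Boxes stay in a greenhouse at 25° C. to 30° C. Three weeks later, each species is graded on previously defined criteria.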
# green foxtail [3] = test: Test Example 4: herbicidal effect by soil treatment (Table 19, symbol G); assay type: in vivo, green foxtail (Setaria viridis); conditions: amount of applied herbicide 320 g/ha
# In short: as §3
# barnyard grass [4] = test: Test Example 4: herbicidal effect by soil treatment (Table 19, symbol H); assay type: in vivo, barnyard grass (Echinochloa crus-galli); conditions: amount of applied herbicide 320 g/ha
# In short: as §3
# wild oat [5] = test: Test Example 4: herbicidal effect by soil treatment (Table 19, symbol I); assay type: in vivo, wild oat (Avena fatua); conditions: amount of applied herbicide 320 g/ha
# In short: as §3
# blackgrass [6] = test: Test Example 4: herbicidal effect by soil treatment (Table 19, symbol J); assay type: in vivo, blackgrass (Alopecurus myosuroides); conditions: amount of applied herbicide 320 g/ha
# In short: as §3
# Italian ryegrass [7] = test: Test Example 4: herbicidal effect by soil treatment (Table 19, symbol K); assay type: in vivo, Italian ryegrass (Lolium multiflorum); conditions: amount of applied herbicide 320 g/ha
# In short: as §3
# windgrass [8] = test: Test Example 4: herbicidal effect by soil treatment (Table 19, symbol L); assay type: in vivo, windgrass (Apera spica-venti); conditions: amount of applied herbicide 320 g/ha
# In short: as §3
# velvetleaf [9] = test: Test Example 4: herbicidal effect by soil treatment (Table 19, symbol M); assay type: in vivo, velvetleaf (Abutilon theophrasti); conditions: amount of applied herbicide 320 g/ha
# In short: as §3
# redroot pigweed [10] = test: Test Example 4: herbicidal effect by soil treatment (Table 19, symbol N); assay type: in vivo, redroot pigweed (Amaranthus retroflexus); conditions: amount of applied herbicide 320 g/ha
# In short: as §3
# lambsquarters [11] = test: Test Example 4: herbicidal effect by soil treatment (Table 19, symbol O); assay type: in vivo, lambsquarters (Chenopodium album); conditions: amount of applied herbicide 320 g/ha
# In short: as §3
# chickweed [12] = test: Test Example 4: herbicidal effect by soil treatment (Table 19, symbol P); assay type: in vivo, common chickweed (Stellaria media); conditions: amount of applied herbicide 320 g/ha
# In short: as §3
# persian speedwell [13] = test: Test Example 4: herbicidal effect by soil treatment (Table 19, symbol R); assay type: in vivo, Persian speedwell (Veronica persica); conditions: amount of applied herbicide 320 g/ha
# In short: as §3
# southern crabgrass [14] = test: Test Example 5: herbicidal effect by foliage application, plastic box (Table 20, symbol F); assay type: in vivo, southern crabgrass (Digitaria ciliaris); conditions: foliage application, 320 g/ha, three weeks after application
# In short: (§4)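 Sow seeds spot-wise in sterilized diluvial soil; cover with ~1.5 cm soil. Grow 14 days in greenhouse, 25° C. to 30° C. Spray foliage with emulsion diluted to predetermined amount. Rate effect after 3 weeks.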
# green foxtail [15] = test: Test Example 5: herbicidal effect by foliage application, plastic box (Table 20, symbol G); assay type: in vivo, green foxtail (Setaria viridis); conditions: foliage application, 320 g/ha, three weeks after application
# In short: as §4
# barnyard grass [16] = test: Test Example 5: herbicidal effect by foliage application, plastic box (Table 20, symbol H); assay type: in vivo, barnyard grass (Echinochloa crus-galli); conditions: foliage application, 320 g/ha, three weeks after application
# In short: as §4
# wild oat [17] = test: Test Example 5: herbicidal effect by foliage application, plastic box (Table 20, symbol I); assay type: in vivo, wild oat (Avena fatua); conditions: foliage application, 320 g/ha, three weeks after application
# In short: as §4
# blackgrass [18] = test: Test Example 5: herbicidal effect by foliage application, plastic box (Table 20, symbol J); assay type: in vivo, blackgrass (Alopecurus myosuroides); conditions: foliage application, 320 g/ha, three weeks after application
# In short: as §4
# Italian ryegrass [19] = test: Test Example 5: herbicidal effect by foliage application, plastic box (Table 20, symbol K); assay type: in vivo, Italian ryegrass (Lolium multiflorum); conditions: foliage application, 320 g/ha, three weeks after application
# In short: as §4
# windgrass [20] = test: Test Example 5: herbicidal effect by foliage application, plastic box (Table 20, symbol L); assay type: in vivo, windgrass (Apera spica-venti); conditions: foliage application, 320 g/ha, three weeks after application
# In short: as §4
# velvetleaf [21] = test: Test Example 5: herbicidal effect by foliage application, plastic box (Table 20, symbol M); assay type: in vivo, velvetleaf (Abutilon theophrasti); conditions: foliage application, 320 g/ha, three weeks after application
# In short: as §4
# redroot pigweed [22] = test: Test Example 5: herbicidal effect by foliage application, plastic box (Table 20, symbol N); assay type: in vivo, redroot pigweed (Amaranthus retroflexus); conditions: foliage application, 320 g/ha, three weeks after application
# In short: as §4
# lambsquarters [23] = test: Test Example 5: herbicidal effect by foliage application, plastic box (Table 20, symbol O); assay type: in vivo, lambsquarters (Chenopodium album); conditions: foliage application, 320 g/ha, three weeks after application
# In short: as §4
# chickweed [24] = test: Test Example 5: herbicidal effect by foliage application, plastic box (Table 20, symbol P); assay type: in vivo, common chickweed (Stellaria media); conditions: foliage application, 320 g/ha, three weeks after application
# In short: as §4
# persian speedwell [25] = test: Test Example 5: herbicidal effect by foliage application, plastic box (Table 20, symbol R); assay type: in vivo, Persian speedwell (Veronica persica); conditions: foliage application, 320 g/ha, three weeks after application
# In short: as §4
# [26] = amount of applied herbicide 320 g/ha
compound,measurement,setting,value
COc1ccccc1-c1sc2cc(F)ccc2c1-c1c(OC(=O)COc2ccccc2)c(C)nn(C)c1=O [3-021],"Herbicidal effect, A: late watergrass",late watergrass,3 (Herbicidal rate of 40% or more and less than 70%)
same,"Herbicidal effect, B: Japanese bulrush",Japanese bulrush,3 (Herbicidal rate of 40% or more and less than 70%)
same,"Herbicidal effect, C: oval-leafed pondweed",oval-leafed pondweed,4 (Herbicidal rate of 70% or more and less than 90%)
same,herbicidal effect on H: barnyard grass,barnyard grass [1]; [26],5 (Herbicidal rate of 90% or more (almost completely withered))
same,herbicidal effect on D: Chinese sprangletop,Chinese sprangletop; [26],3 (Herbicidal rate of 40% or more and less than 70%)
same,herbicidal effect on E: rice flat sedge,rice flat sedge; [26],5 (Herbicidal rate of 90% or more (almost completely withered))
same,"herbicidal effect, F: southern crabgrass",southern crabgrass [2],3 (Herbicidal rate of 40% or more and less than 70%)
same,"herbicidal effect, G: green foxtail",green foxtail [3],4 (Herbicidal rate of 70% or more and less than 90%)
same,"herbicidal effect, H: barnyard grass",barnyard grass [4],4 (Herbicidal rate of 70% or more and less than 90%)
same,"herbicidal effect, I: wild oat",wild oat [5],1 (Herbicidal rate of 5% or more and less than 20%)
same,"herbicidal effect, J: blackgrass",blackgrass [6],4 (Herbicidal rate of 70% or more and less than 90%)
same,"herbicidal effect, K: Italian ryegrass",Italian ryegrass [7],4 (Herbicidal rate of 70% or more and less than 90%)
same,"herbicidal effect, L: windgrass",windgrass [8],3 (Herbicidal rate of 40% or more and less than 70%)
same,"herbicidal effect, M: velvetleaf",velvetleaf [9],0 (Herbicidal rate of 5% or less (almost no effect))
same,"herbicidal effect, N: redroot pigweed",redroot pigweed [10],4 (Herbicidal rate of 70% or more and less than 90%)
same,"herbicidal effect, O: lambsquarters",lambsquarters [11],4 (Herbicidal rate of 70% or more and less than 90%)
same,"herbicidal effect, P: chickweed",chickweed [12],3 (Herbicidal rate of 40% or more and less than 70%)
same,"herbicidal effect, R: persian speedwell",persian speedwell [13],4 (Herbicidal rate of 70% or more and less than 90%)
same,"F: southern crabgrass, herbicidal effect grade",southern crabgrass [14],4 (Herbicidal rate of 70% or more and less than 90%)
same,"G: green foxtail, herbicidal effect grade",green foxtail [15],5 (Herbicidal rate of 90% or more (almost completely withered))
same,"H: barnyard grass, herbicidal effect grade",barnyard grass [16],5 (Herbicidal rate of 90% or more (almost completely withered))
same,"I: wild oat, herbicidal effect grade",wild oat [17],4 (Herbicidal rate of 70% or more and less than 90%)
same,"J: blackgrass, herbicidal effect grade",blackgrass [18],4 (Herbicidal rate of 70% or more and less than 90%)
same,"K: Italian ryegrass, herbicidal effect grade",Italian ryegrass [19],4 (Herbicidal rate of 70% or more and less than 90%)
same,"L: windgrass, herbicidal effect grade",windgrass [20],5 (Herbicidal rate of 90% or more (almost completely withered))
same,"M: velvetleaf, herbicidal effect grade",velvetleaf [21],5 (Herbicidal rate of 90% or more (almost completely withered))
same,"N: redroot pigweed, herbicidal effect grade",redroot pigweed [22],5 (Herbicidal rate of 90% or more (almost completely withered))
same,"O: lambsquarters, herbicidal effect grade",lambsquarters [23],5 (Herbicidal rate of 90% or more (almost completely withered))
same,"P: chickweed, herbicidal effect grade",chickweed [24],5 (Herbicidal rate of 90% or more (almost completely withered))
same,"R: persian speedwell, herbicidal effect grade",persian speedwell [25],4 (Herbicidal rate of 70% or more and less than 90%)
Cc1nn(C)c(=O)c(-c2c(-c3ccc4c(c3)OCCO4)sc3cc(Cl)ccc23)c1O [3-047],"Herbicidal effect, A: late watergrass",late watergrass,3 (Herbicidal rate of 40% or more and less than 70%)
same,"Herbicidal effect, B: Japanese bulrush",Japanese bulrush,2 (Herbicidal rate of 20% or more and less than 40%)
same,"Herbicidal effect, C: oval-leafed pondweed",oval-leafed pondweed,0 (Herbicidal rate of 5% or less (almost no effect))
same,herbicidal effect on barnyard grass (H),barnyard grass [1]; 320 g/ha,3 (Herbicidal rate of 40% or more and less than 70%)
same,herbicidal effect on Chinese sprangletop (D),Chinese sprangletop; 320 g/ha,3 (Herbicidal rate of 40% or more and less than 70%)
same,herbicidal effect on rice flat sedge (E),rice flat sedge; 320 g/ha,2 (Herbicidal rate of 20% or more and less than 40%)
same,"F: southern crabgrass, herbicidal effect grade",southern crabgrass [2],0 (Herbicidal rate of 5% or less (almost no effect))
same,"G: green foxtail, herbicidal effect grade",green foxtail [3],0 (Herbicidal rate of 5% or less (almost no effect))
same,"H: barnyard grass, herbicidal effect grade",barnyard grass [4],0 (Herbicidal rate of 5% or less (almost no effect))
same,"I: wild oat, herbicidal effect grade",wild oat [5],0 (Herbicidal rate of 5% or less (almost no effect))
same,"J: blackgrass, herbicidal effect grade",blackgrass [6],0 (Herbicidal rate of 5% or less (almost no effect))
same,"K: Italian ryegrass, herbicidal effect grade",Italian ryegrass [7],0 (Herbicidal rate of 5% or less (almost no effect))
same,"L: windgrass, herbicidal effect grade",windgrass [8],0 (Herbicidal rate of 5% or less (almost no effect))
same,"M: velvetleaf, herbicidal effect grade",velvetleaf [9],0 (Herbicidal rate of 5% or less (almost no effect))
same,"N: redroot pigweed, herbicidal effect grade",redroot pigweed [10],1 (Herbicidal rate of 5% or more and less than 20%)
same,"O: lambsquarters, herbicidal effect grade",lambsquarters [11],3 (Herbicidal rate of 40% or more and less than 70%)
same,"P: chickweed, herbicidal effect grade",chickweed [12],0 (Herbicidal rate of 5% or less (almost no effect))
same,"R: persian speedwell, herbicidal effect grade",persian speedwell [13],5 (Herbicidal rate of 90% or more (almost completely withered))
same,"F: southern crabgrass, herbicidal effect grade",southern crabgrass [14],0 (Herbicidal rate of 5% or less (almost no effect))
same,"G: green foxtail, herbicidal effect grade",green foxtail [15],0 (Herbicidal rate of 5% or less (almost no effect))
same,"H: barnyard grass, herbicidal effect grade",barnyard grass [16],0 (Herbicidal rate of 5% or less (almost no effect))
same,"I: wild oat, herbicidal effect grade",wild oat [17],0 (Herbicidal rate of 5% or less (almost no effect))
same,"J: blackgrass, herbicidal effect grade",blackgrass [18],0 (Herbicidal rate of 5% or less (almost no effect))
same,"K: Italian ryegrass, herbicidal effect grade",Italian ryegrass [19],0 (Herbicidal rate of 5% or less (almost no effect))
same,"L: windgrass, herbicidal effect grade",windgrass [20],0 (Herbicidal rate of 5% or less (almost no effect))
same,"M: velvetleaf, herbicidal effect grade",velvetleaf [21],1 (Herbicidal rate of 5% or more and less than 20%)
same,"N: redroot pigweed, herbicidal effect grade",redroot pigweed [22],0 (Herbicidal rate of 5% or less (almost no effect))
same,"O: lambsquarters, herbicidal effect grade",lambsquarters [23],2 (Herbicidal rate of 20% or more and less than 40%)
same,"P: chickweed, herbicidal effect grade",chickweed [24],3 (Herbicidal rate of 40% or more and less than 70%)
same,"R: persian speedwell, herbicidal effect grade",persian speedwell [25],5 (Herbicidal rate of 90% or more (almost completely withered))

# Reference: patent publication US20230085307A1, “PYRIDAZINONE COMPOUND AND HERBICIDE” (NISSAN CHEMICAL CORPORATION, priority 2019, published 2023)
